The record followed here is patent US7199121B2, “Protein tyrosine phosphatase inhibitor” (Institute of Molecular and Cell Biology, priority 2000, dated 2007).

The subject of the test is Yop. The following applies: for percentage activity of Yop relative to control: 1 μM compound, phosphatase 0.1 nM, pNPP, average of three enzyme preparations ± S.D.

`Cn1nc2c(nc1=O)c(=O)n(C)c(=O)n2C` [Compound 3, 2,8-dihydro-2,6,8-trimethyl-pyrimido[5,4-e]-1,2,4-triazine-3,5,7(6H)-trione]: the “percentage activity of Yop relative to control” value is 10 ± 1.0%. Under “1 μM”, the “inhibition of Yop” value is ~90%. The “PTP inhibition of Yop at neutral pH” value (neutral pH, results not shown) is on record as “continues to behave as a PTP inhibitor”. Turning to `Cn1nc2c(nc1=O)n(C)c(=O)n2C` [Compound 4, 2,5,7-trimethyl-2,7-dihydro-5H-imidazo[4,5-e]-1,2,4-triazine-3,6-dione], the “percentage activity of Yop relative to control” value is recorded as 95 ± 4.0%. Still for that read-out and setting: the result for `[Na+].[Na+].[Na+].[O]=[V]([O-])([O-])[O-]` [Na3VO4, sodium orthovanadate, reference compound] reads 14 ± 1.0%.
